The values below come from publication PMC11354720, “Assessing the Efficacy of Protease Inactivation for the Preservation of Bioactive Amphibian Skin Peptides” (International Journal of Molecular Sciences, 2024).

The data set concerns proteases in Pelophylax esculentus skin secretion. In kind it is in vitro ADME. The following applies: LC-HRMS; for Proteoforms, %: sum of all proteolytic forms; for Intact, %: one frog per sample. The method, then: The inhibitory capacity of methanol and hydrochloric and formic acids, as well as PMSF at the minimum and maximum concentrations traditionally used in proteomics (0.1–1.0 mM), was compared via mass spectrometric monitoring of intact and proteolytic forms of nine peptides in five samples of Pelophylax esculentus secretions (samples 1–5).
Table 2 presents quantitative data for each of the nine peptides in Table 1, showing the percentage ratio of the intact (original) form of the peptide, the oxidized form (in the presence of methionine in the sequence), and the resulting proteolytic forms: products of the action of the remaining non-deactivated proteases. The full list of the detected proteolytic forms is included into the supporting material. The presence of one or another proteolytic form for each peptide in each of the five samples was determined by observing the coincidence of their exact experimental mass with the calculated one (within 0.5 ppm according to the mass spectra), as well as the coincidence of their sequences (tandem mass spectra data).
When calculating the data in Table 2, the total amount of intensities of all its formed forms in the mass spectra was taken as 100% for each peptide. To calculate the content in each of the samples of the intact, oxidized (if any), or proteolytic form of each of the nine peptides, the sum of the intensities of the chromatographic peaks of its multicharged ions, exactly corresponding to the values of the polyprotonated molecules of each of the forms, was used. The line “Proteoforms, %” took into account the sum of all proteolytic forms of a particular peptide for each of the five samples. The values of the intensities of each of the forms (intact, oxidized, and proteolytic) obtained in this way were summed up and, in relation to their resulting sum, the percentage content of each of the three forms in Table 2 was calculated for each of the five samples with different reagents.
The skin secretions of five sexually mature female specimens of the same size of Pelophylax esculentus, caught within the Moscow city limits, were obtained via mild electro-stimulation of the skin glands using a laboratory electro-stimulator [15, 51]. The “milking” parameters were as follows: signal frequency 50 Hz, pulse duration 3 ms, voltage 12 V, total stimulation time 40 s. The secretion was washed off with deionized water into separate containers, to which the following reagents were immediately added individually: —HCl to final concentration 1% (sample 1); —CH3OH (sample 2); —HCOOH to final concentration 1% (sample 3); —0.1 mM PMSF (sample 4 in DMSO); —1.0 mM PMSF (sample 5 in DMSO). All samples were centrifuged for 15 min at 3 000 rpm, filtered through removable membrane filters (PTFE 0.45 μm), and lyophilized. The storage temperature was −26 °C. All five individuals were immediately returned to their place of capture after the procedure.
Mass spectra were obtained on an Orbitrap ID-X high-resolution mass spectrometer (Thermo Scientific, Waltham, MA, USA) coupled to an LC-30 Nexera liquid chromatograph (Shimadzu, Kyoto, Japan) in LC-HRMS mode. An HPLC system consisted of two LC-30AD chromatographic pumps, a DGU-5A vacuum degasser, a SIL-30AC autosampler, an STO-20A column thermostat, and a CBM-20A system controller. The components of the secretions were separated on an XDB-C18 column (Agilent, Santa Clara, CA, USA) with a length of 100 mm and phase particle size of 1.8 μm. Gradient chromatography was performed using the following solutions: A—0.1% formic acid solution in deionized water (Milli-Q, Millipore, Molsheim, France); B—0.1% formic acid solution in acetonitrile containing 2% deionized water. All lyophilized samples were dissolved in phase B prior to the analysis. Injection volume was set to 0.1 µL. […]

Like-named read-outs stand apart in the source and are kept apart here. Bridges are numbered along the chain shown (N, C = ends). Where no end group is shown, it is not given here.

“GIFSKLGRKKIKNLLISGLKNVGKEVGMDVVRTGIDIAGCKIKGEC (disulfide 40-46) [Escul 1, Esculentin 1]”: the “Proteoforms, %” value amounted to 51.77% (sample 1: HCl final concentration 1%, all forms = 100%); 20.01% (sample 2: CH3OH, all forms = 100%); 16.99% (sample 3: HCOOH final concentration 1%, all forms = 100%); 94.40% (sample 4: PMSF 0.1 mM (in DMSO), all forms = 100%); 91.90% (sample 5: PMSF 1.0 mM (in DMSO), all forms = 100%). Also, the “Intact, %” value by setting is: (sample 1: aqueous P. esculentus skin secretion, HCl added to final concentration 1%, sum of intensities of all forms of the peptide = 100%) 38.61%; (sample 2: aqueous P. esculentus skin secretion with CH3OH added, all forms = 100%) 79.99%; (sample 3: aqueous P. esculentus skin secretion, HCOOH added to final concentration 1%, all forms = 100%) 72.22%; (sample 4: aqueous P. esculentus skin secretion, PMSF 0.1 mM (in DMSO), all forms = 100%) 3.32%; (sample 5: aqueous P. esculentus skin secretion, PMSF 1.0 mM (in DMSO), all forms = 100%) 8.10%.
